PubChem BioAssay AID2060501 (Molecular Pharmacology Branch, DTP, NCI, 2025)
pIC50: −log10 of the molar value.

Tested on: 282377-053-R-J1-PDC complex spheroids, viability
Experiment: Anticancer human tumor 282377-053-R-J1-PDC patient-derived colon adenocarcinoma cell line growth inhibition [GQUAD]
Details: for pIC50: curve of first compound; for viability, T/C: stronger effect = lower value
Source text: DNA G-quadruplex Stabilizer Agents in Combinations in Complex Spheroids
A high-throughput screen of multi-cell type tumor spheroids was designed to identify active combinations of DNA G-quadruplex stabilizer agents and targeted small molecules. Complex spheroids include a stromal component modeled by human endothelial cells (HUVEC) and fibroblasts modeled by human mesenchymal stem cells (MSCs). The concentration ranges selected for each drug and investigational agent were based upon clinically achievable concentrations if the clinical Cmax of the agent was known.
Compounds. The drugs and investigational agents: pidnarulex (CX-5461; NSC782164), APTO-253 (NSC789042), BRACO-19 (NSC847499), peposertib (NSC802822), ceralasertib (NSC780249), elimusertib (NSC800525), camonsertib (NSC841442), AZD-1390 (NSC803789), olaparib (NSC753686), talazoparib (NSC767125), ART-558 (NSC835418), sotorasib (NSC818433), MRTX-1133 (NSC836407), SN-38 (NSC673596), topotecan (NSC609699), etoposide (NSC141540), doxorubicin (NSC123127), gemcitabine (NSC613327), 5-fluorouracil (NSC19893), paclitaxel (NSC125973), vemurafenib (NSC761431), panobinostat (NSC761190), R-306465 (JNJ-16241199; NSC773264), adavosertib (NSC754352), TP-3654 (NSC805149), carboplatin (NSC241240), KSQ-4279 (NSC840948), and staurosporine (NSC755774) were obtained from the National Cancer Institute (NCI) Developmental Therapeutics Program Chemical Repository (34). The FDA-approved anticancer drug set is available from the NCI Developmental Therapeutics Program. […] The stock solutions were prepared in dimethyl sulfoxide (DMSO, Sigma-Aldrich, St. Louis, MO, cat. D2650) at 800-fold the tested concentration and stored at -70 degrees C prior to their use. All drugs and investigational agents were tested over a range starting from a high concentration at or near the clinical Cmax and decreasing in half-log increments. If the clinical Cmax for an agent had not been determined, the highest concentration tested was 10 microM.
2.3 Cell Culture. All cells were maintained in an incubator at 37 degrees C and 5% CO2 with 95% humidity. The PDC lines were cultured according to standard operating procedures established by the NCI PDMR. All PDCs were thawed and cultured in Matrigel-coated flasks prepared with a working solution of 1X Ham's F-12 nutrient mix, without supplementation (Invitrogen, cat. 11765054), 100 U/mL penicillin-streptomycin (Invitrogen, cat. 15140122), and 2.5% Matrigel (Corning Inc., cat. 354248) for the first three passages. The 857933-349-R-J2-PDC line was cultured in 6C/Colon 1B media, which includes advanced DMEM/F-12 (Thermo Fisher Scientific, cat. 12634028), 10 mM HEPES (Thermo Fisher Scientific, cat. 15630080), 1X GlutaMAX supplement (Thermo Fisher Scientific, cat. 35050061), 0.1 mg/mL primocin (InvivoGen, cat. ant-pm-2), 10% defined fetal bovine serum, heat inactivated (HyClone Laboratories Inc., cat. SH30070.03HI), 50% L-WRN conditioned media (ATCC, cat. CRL-3276), 1.25 mM N-Acetyl-L-cysteine (Sigma-Aldrich, cat. A9165), 10 mM nicotinamide (Sigma-Aldrich, cat. N0636), 1X B-27 supplement (Thermo Fisher Scientific, cat. 17504044), 1X N-2 supplement (Thermo Fisher Scientific, cat. 17502048), 10 microM Y-27632 dihydrochloride (Tocris Bioscience, cat. 1254), and 50 ng/mL human EGF recombinant protein (Thermo Fisher Scientific, cat. PHG0311). The 485176-168-R4-J1-PDC line was cultured in Panc media, which includes all 6C/Colon 1B media components plus 100 ng/mL human FGF-10 (Thermo Fisher Scientific, cat. 100-26), 500 nM SB-431542 (Selleckchem, cat. S1067), and gastrin (Tocris, cat. 3006).
[…]
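Also: spheroids exposed to compounds for 7 days before readout.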
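For viability, T/C in this document: percent of vehicle DMSO control viability with 100% = untreated-like growth.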

Question: How did the pIC50 (second compound 0.0316 µM) turn out when `COc1ccc([C@@H](O)c2cc(-c3ncnc4cc(N5CCOCC5)ccc34)c(F)cc2Cl)nn1` + Cc1[nH]c2ccc(F)cc2c1-c1nc2c3cccnc3c3ncccc3c2[nH]1 was run?
Answer: < 5.00

Question: What about the pIC50 (second compound 0.1 µM) of the same molecule?
Answer: < 5.00

Question: What about the pIC50 (second compound 0.316 µM) of the same molecule?
Answer: < 5.00

Question: And the pIC50 (second compound 1 µM)?
Answer: < 5.00

Question: What about the pIC50 (second compound 3.16 µM) of the same molecule?
Answer: 6.36

Question: What about the pIC50 (second compound 10 µM) of the same molecule?
Answer: > 7.50

Question: What about the viability, T/C (second compound 0.0316 µM, first compound 0.0316 µM) of the same molecule?
Answer: 101%

Question: And the viability, T/C (second compound 0.0316 µM, first compound 0.1 µM)?
Answer: 91.3%

Question: What about the viability, T/C (second compound 0.0316 µM, first compound 0.316 µM) of the same molecule?
Answer: 102%

Question: What about the viability, T/C (second compound 0.0316 µM, first compound 1 µM) of the same molecule?
Answer: 73.9%

Question: And the viability, T/C (second compound 0.0316 µM, first compound 3.16 µM)?
Answer: 76.3%

Question: What about the viability, T/C (second compound 0.0316 µM, first compound 10 µM) of the same molecule?
Answer: 63.8%

Question: And the viability, T/C (second compound 0.1 µM, first compound 0.0316 µM)?
Answer: 107%

Question: What about the viability, T/C (second compound 0.1 µM, first compound 0.1 µM) of the same molecule?
Answer: 101%

Question: And the viability, T/C (second compound 0.1 µM, first compound 0.316 µM)?
Answer: 97.9%

Question: What about the viability, T/C (second compound 0.1 µM, first compound 1 µM) of the same molecule?
Answer: 84.9%

Question: And the viability, T/C (second compound 0.1 µM, first compound 3.16 µM)?
Answer: 72%

Question: What about the viability, T/C (second compound 0.1 µM, first compound 10 µM) of the same molecule?
Answer: 61.1%

Question: What about the viability, T/C (second compound 0.316 µM, first compound 0.0316 µM) of the same molecule?
Answer: 87.8%

Question: What about the viability, T/C (second compound 0.316 µM, first compound 0.1 µM) of the same molecule?
Answer: 93%

Question: And the viability, T/C (second compound 0.316 µM, first compound 0.316 µM)?
Answer: 73.8%

Question: What about the viability, T/C (second compound 0.316 µM, first compound 1 µM) of the same molecule?
Answer: 93.7%

Question: What about the viability, T/C (second compound 0.316 µM, first compound 3.16 µM) of the same molecule?
Answer: 75.3%

Question: What about the viability, T/C (second compound 0.316 µM, first compound 10 µM) of the same molecule?
Answer: 60.6%

Question: And the viability, T/C (second compound 1 µM, first compound 0.0316 µM)?
Answer: 86.5%

Question: And the viability, T/C (second compound 1 µM, first compound 0.1 µM)?
Answer: 88.5%

Question: And the viability, T/C (second compound 1 µM, first compound 0.316 µM)?
Answer: 94.7%

Question: What about the viability, T/C (second compound 1 µM, first compound 1 µM) of the same molecule?
Answer: 97.1%

Question: What about the viability, T/C (second compound 1 µM, first compound 3.16 µM) of the same molecule?
Answer: 88.2%

Question: What about the viability, T/C (second compound 1 µM, first compound 10 µM) of the same molecule?
Answer: 57.4%

Question: What about the viability, T/C (second compound 3.16 µM, first compound 0.0316 µM) of the same molecule?
Answer: 75.7%

Question: What about the viability, T/C (second compound 3.16 µM, first compound 0.1 µM) of the same molecule?
Answer: 68.6%

Question: And the viability, T/C (second compound 3.16 µM, first compound 0.316 µM)?
Answer: 47.2%

Question: And the viability, T/C (second compound 3.16 µM, first compound 1 µM)?
Answer: 42.8%

Question: And the viability, T/C (second compound 3.16 µM, first compound 3.16 µM)?
Answer: 33.2%

Question: And the viability, T/C (second compound 3.16 µM, first compound 10 µM)?
Answer: 15.9%

Question: What about the viability, T/C (second compound 10 µM, first compound 0.0316 µM) of the same molecule?
Answer: 44.8%

Question: And the viability, T/C (second compound 10 µM, first compound 0.1 µM)?
Answer: 47.4%

Question: And the viability, T/C (second compound 10 µM, first compound 0.316 µM)?
Answer: 33.6%

Question: What about the viability, T/C (second compound 10 µM, first compound 1 µM) of the same molecule?
Answer: 26.3%

Question: What about the viability, T/C (second compound 10 µM, first compound 3.16 µM) of the same molecule?
Answer: 19.6%

Question: And the viability, T/C (second compound 10 µM, first compound 10 µM)?
Answer: 21.1%
